# Measurements as given in patent US11136601B2, “Conversion of S-lignin compounds to useful intermediates” (Alliance for Sustainable Energy, LLC, priority 2018, dated 2021).
# B1: VanAB (vanillate demethylase; purified VanA and VanB subunits) (Pseudomonas putida KT2440) (protein)
# chain: MYPKNTWYVACTPDEIATKPLGRQICGEKIVFYRARENQVAAVEDFCPHRGAPLSLGYVEDGNLVCGYHGLVMGCDGKTVSMPGQRVRGFPCNKTFAAVERYGFIWVWPGDQAQADPALIPHLEWAVSDEWAYGGGLFHIGCDYRLMIDNLMDLTHETYVHASSIGQKEIDEAPPVTTVTGDEVVTARHMENIMAPPFWRMALRGNGLADDVPVDRWQICRFTPPSHVLIEVGVAHAGKGGYHAEAQHKASSIVVDFITPESDTSIWYFWGMARNFAAHDQTLTDNIREGQGKIFSEDLEMLERQQQNLLAHPERNLLKLNIDAGGVQSRKVLERIIAQERAPQPQLIATSANPA
# Tests used:
# [1] = target: T1, VanAB (vanillate demethylase; purified VanA and VanB subunits) (Pseudomonas putida, UniProt Q88GI6); experiment: VanAB in vitro enzymatic assay (kinetics and specific activity, NADPH consumption at 340 nm); conditions: for VanAB specific activity: 100 μM substrate, pH 7.5; for VanAB specific activity / Kcat: 100 μM NADPH; for Kcat: Michaelis-Menten kinetics, 20 mM Tris-HCl pH 7.5
# Method: VanAB activity was also tested towards vanillate analogous substrates such as vanillin, ferulic acid, sinapinic acid, methyl vanillate, ethyl vanillate, and guaiacol.
# (§1) Activity assay were followed by cofactor NADPH consumption monitored spectrophotometrically at 340 nm.
# [2] = test system: P. putida KT2440 wild-type; experiment: Toxicity assessment of S-lignin derived monomers, growth (OD600) of wild-type strain; assay type: cell-based, Pseudomonas putida; conditions: wild-type KT2440, M9 minimal media with 20 mM glucose
# Description: (§2) FIG. 9 illustrates: Panel A. Wild-type P. putida KT24401 and Panel B. P. putida CJ486 (second copy vanAB overexpressed in genome), both according to some embodiments of the present disclosure. […] Cultures were sampled periodically to evaluate growth by OD600 and metabolite concentrations in the media using HPLC. Each point represents the average of two measurements with error bars representing their range.
# (§3) FIG. 10 illustrates: Panel A. Wild-type P. putida KT2440; and Panel B. P. putida CJ486 (second copy vanAB overexpressed in genome), both according to some embodiments of the present disclosure. Cells were grown in M9 minimal medium containing 20 mM glucose and various concentrations of SAL. Cultures were sampled periodically to evaluate growth by OD600 and metabolite concentrations in the media using HPLC. Each point represents the average of two measurements with error bars representing their range.
# as §2, with “11” for “9”, “KT2440;” for “KT24401”
# (§4) To evaluate this, the engineered strain CJ486 and wild-type strain were grown in M9 minimal media containing 20 mM glucose and various concentrations of the S-lignin monomers.
# (§5) Strains were cultivated overnight in LB medium, washed once with 1×M9 medium (6.78 g/L disodium phosphate, 3 g/L monopotassium phosphate, 0.5 g/L NaCl, 1 g/L NH4Cl, 2 mM MgSO4, 100 μM CaCl2), and 18 μM FeSO4, pH 7.0) and used to inoculate 125 mL baffled flasks containing M9 minimal media supplemented with various concentrations of S-lignin monomers (SA, 3-MGA or syringaldehyde (SAL), stock solution dissolved in 2% DMSO) and 20 mM glucose in some cases, to an optical density of 0.1 and incubated shaking at 225 rpm, 30° C. Cultures were sampled periodically by removing 1 mL that was used to measure the OD600 using a spectrophotometer (DU640 Beckman Coulter). In the case of 3-MGA provided to wild-type strain KT2440, SN166 and SN175, the reaction was downscaled to 50 mL baffled flasks containing 10 mL minimal media and the experiment was performed in duplicate.
# [3] = test system: P. putida CJ486 (second copy vanAB overexpressed in genome); experiment: Toxicity assessment of S-lignin derived monomers, growth (OD600) of engineered strain CJ486; assay type: cell-based, Pseudomonas putida; conditions: strain CJ486, M9 minimal media with 20 mM glucose
# Description: as §2, §3
# as §2, with “11” for “9”, “KT2440;” for “KT24401”
# as §4, §5
# [4] = target: T1, VanAB (vanillate demethylase; purified VanA and VanB subunits); experiment: VanAB in vitro time course of substrate consumption and product formation (HPLC); assay type: biochemical, P. putida KT2440; conditions: 30 minutes time course, 100 μM substrate, VanAB 1.3 μM, room temperature
# Method: FIG. 13 illustrates time course of VA consumption/PCA production and SA consumption/3-MGA production, according to some embodiments of the present disclosure. VanAB (1.3 μM) was incubated with 100 μM VA or SA at room temperature, in the presence of 0.5 μM NADPH. Results are an average of at least two experiments.
# FIG. 14 illustrates time-course of 3MGA consumption and GA formation, according to some embodiments of the present disclosure.
# as §1
# Metabolites analysis: Samples from the in vivo experiments were centrifuged to remove the cells and the supernatants were filtered through a 0.2 μm syringe filter and metabolite concentrations were analyzed on an Agilent 1100 series HPLC equipped with Phenominex Rezex™ RFQ-Fast Acid H^+ (8%), LC Column, a diode array detector, and refractive index detector and a 0.01 N H2SO4 mobile phase. The products were identified by comparing the retention times and spectral profiles with pure compounds. Shake flask experiments were performed in triplicate and the standard deviation of the triplicate measurement were calculated using the following equation: in which x is each value in a sample, x is the average of the values, and n is the number of values. The same method was employed to analyze the metabolites from the in vitro reaction. PDC compounds was analyzed and quantified by ^1H NMR spectrum. […], of fermentation broth was diluted in 400 μL of deuterium oxide (Isotope Laboratories Inc.) and 50 μL of deuterium oxide containing known mass of the internal standard succinic acid.
# [5] = substrate: COc1cc(C(=O)O)cc(OC)c1O; experiment: purified protein, by the assay type; conditions: other: Michaelis-Menten kinetics, 100 μM NADPH, 20 mM Tris-HCl pH 7.5, 30.0 °C
# [6] = substrate: COc1cc(C(=O)O)ccc1O; experiment: purified protein, by the assay type; conditions: other: apparent constant (substrate inhibition kinetics); NADPH measured in the presence of VA; pH 7.5; 30.0 °C
# [7] = apparent constant (substrate inhibition kinetics), NADPH measured in the presence of VA
# T1 sequence (Q88GI5 entry or part of it, one chain of several): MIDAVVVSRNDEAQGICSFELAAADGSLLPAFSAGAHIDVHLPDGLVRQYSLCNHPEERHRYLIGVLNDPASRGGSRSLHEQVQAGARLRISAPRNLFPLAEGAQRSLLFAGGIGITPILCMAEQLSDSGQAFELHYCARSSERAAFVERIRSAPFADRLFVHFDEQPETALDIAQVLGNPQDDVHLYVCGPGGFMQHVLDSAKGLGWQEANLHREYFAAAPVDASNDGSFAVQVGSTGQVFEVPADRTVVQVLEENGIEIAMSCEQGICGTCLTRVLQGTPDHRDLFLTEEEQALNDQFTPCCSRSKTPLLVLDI
molecule,measurement,setting,value
"COc1cc(C(=O)O)cc(O)c1O [3-MGA, 3-O-methyl gallate]",VanAB specific activity,[1],264 ± 86 U/mg
same,Kcat,[1],0.435 ± 0.0467 s⁻¹
same,Kcat,[1]; listed as 3MGA,0.435 ± 0.0467 s⁻¹
"CCOC(=O)c1ccc(O)c(OC)c1 [Ethylvanillate, ethyl vanillate]",VanAB specific activity,[1],100 ± 27 U/mg
same,VanAB specific activity,[1]; listed as ethyl vanillate,100±27 U/mg
"O=C(O)c1cc(O)c(O)c(O)c1 [Gallate, gallic acid]",concentration at which growth was completely inhibited (no growth),[2],50000 µM
same,highest concentration tolerated / that allowed growth,[2],20 mM
same,concentration at which growth was completely inhibited (no growth),[3],50000 µM
same,highest concentration tolerated / that allowed growth,[3],20 mM
"COc1ccccc1O [Guieicol, guaiacol]",VanAB specific activity,[1],188 ± 16 U/mg
same,VanAB specific activity,[1]; listed as guaiacol,188±16 U/mg
"NC(=O)C1=CN([C@@H]2O[C@H](COP(=O)(O)OP(=O)(O)OC[C@H]3O[C@@H](n4cnc5c(N)ncnc54)[C@H](OP(=O)(O)O)[C@@H]3O)[C@@H](O)[C@H]2O)C=CC1 [NADPH, reference compound]",KMapp,[1]; [7],26.7 ± 3.7 µM
same,Kcat^app,[1]; [7],0.045 ± 0.0183 s⁻¹
same,Ki,"[1]; read-out: Ki (substrate inhibition), substrate inhibition kinetics, NADPH-dependent inhibition measured in the presence of VA",25.3 ± 7.4 µM
"COc1cc(C=O)cc(OC)c1O [SAL, syringaldehyde]",concentration at which growth was completely inhibited (no growth),[2],50000 µM
same,highest concentration tolerated / that allowed growth,[2],20 mM
same,concentration at which growth was completely inhibited (no growth),[3],50000 µM
same,highest concentration tolerated / that allowed growth,[3],20 mM
"COc1cc(C(=O)O)cc(OC)c1O [Syringate, syringic acid]",product formed (protocatechuate from VA; 3-MGA from SA),[4],9 µM
same,residual substrate concentration,[4],70 µM
same,VanAB specific activity,[1],704 ± 103 U/mg
same,Kcat,[1]; listed as SA,1.13 ± 0.0683 s⁻¹
same,highest concentration tolerated / that allowed growth,[2],at least 120 mM
same,highest concentration tolerated / that allowed growth,[3],at least 120 mM
"COc1cc(C(=O)O)ccc1O [Vanillate, vanillate]",product formed (protocatechuate from VA; 3-MGA from SA),[4],47 µM
same,substrate converted (metabolized),[4],58 µM
same,VanAB specific activity,[1],403 ± 59 U/mg
"COc1cc(C=O)ccc1O [Vanillin, vanillin]",VanAB specific activity,[1],49 ± 18 U/mg
same,VanAB specific activity,[1]; listed as vanillin,49±18 U/mg
same,fold lower specific activity in comparison to VA,[1]; VanAB specific activity relative to VA,10 fold
B1,Km,[5],113.9 ± 21.5 µM
same,kcat,[5],1.13 ± 0.0683 s⁻¹
same,Km,[6],4.3 ± 3.1 µM
same,kcat,[6],0.28 ± 0.0317 s⁻¹
